According to PMC12022903, “Evaluation of drug-drug interaction between Suraxavir Marboxil (GP681) and itraconazole, and assessment of the impact of gene polymorphism” (Frontiers in Pharmacology, 2025):
Like-named read-outs stand apart in the source and are kept apart here.

How the values were obtained:
[1] = test system: OATP1B1; parameters: method as in unpublished data; details: preclinical studies; ref unpublished data; cited from earlier work
[2] = test system: carboxylesterase CES2; parameters: method as in unpublished data; details: preclinical studies; ref unpublished data; cited from earlier work
[3] = test system: liver enzymes; parameters: method as in unpublished data; details: preclinical studies; ref unpublished data; cited from earlier work
[4] = parameters: method as in unpublished data; details: preclinical studies; ref unpublished data; cited from earlier work
[5] = quantification limit 0.3 ng/mL
[6] = assay type: in vivo
Experimental: This single-center, open-label, self-controlled, fixed-sequence study, sponsored by Qingfeng Pharmaceutical Group Co., Ltd., was conducted at a single clinical research site in the China–Japan Friendship Hospital (Beijing, China). Each subject received the following treatment: Suraxavir Marboxil (GP681) 20 mg in the fasted state on day 1 and day 26. Itraconazole capsules (Sporanox®: Xi’an Yangsen Pharmaceutical Co., Ltd., China) 0.2 g twice daily (BID, bis in die) on day 22. Itraconazole 0.2 g daily from day 23 to day 36 [including day 26, when itraconazole was co-administrated with Suraxavir Marboxil (GP681)]. The washout period is 21 days (Figure 2).
Safety was assessed through physical examination, vital sign measurements, clinical laboratory tests, 12-lead electrocardiograms, and assessment of self-reported symptoms. Adverse events were collected from the first dose through the end of the study. All safety data collected were assessed for severity and relationship to each study drug, Suraxavir Marboxil (GP681) or itraconazole. The severity of an adverse event was graded according to Common Terminology Criteria for Adverse Events (CTCAE) v5.0. For each adverse event occurred, investigators continued to follow up until it was resolved. Adverse event analysis is based on Safety Set (SS), coded with MedDRA version 26.0. Adverse events will be summarized by system organ class (SOC) and preferred term (PT) in terms of number of cases, occurrences, and incidence rate.

[7] = test system: MDR1; parameters: method as in unpublished data; details: preclinical studies; ref unpublished data; cited from earlier work
[8] = parameters: method as in unpublished data; details: within 336 h after oral administration; ref unpublished data; cited from earlier work
[9] = test system: OAT3; parameters: method as in unpublished data; details: preclinical studies; ref unpublished data; cited from earlier work
[10] = test system: MDR1; parameters: method as in unpublished data; details: preclinical studies; ref unpublished data; cited from earlier work; remark: listed apart in the source
[11] = test system: OAT1; parameters: method as in unpublished data; details: preclinical studies; ref unpublished data; cited from earlier work
[12] = test system: OATP1B3; parameters: method as in unpublished data; details: preclinical studies; ref unpublished data; cited from earlier work
[13] = test system: BCRP; parameters: method as in unpublished data; details: preclinical studies; ref unpublished data; cited from earlier work
[14] = N = 12, treatment stage given by label

## COC(=O)OCOc1c2n(ccc1=O)N([C@@H]1c3ccccc3SCc3c1ccc(F)c3F)[C@@H]1COC3(CC3)CN1C2=O [GP681, (((R)-12'-((S)-7,8-difluoro-6, 11-dihydro-2-benzothiophene-11-yl)-6′, 8′-dioxide-6′, 8′, 12′, 12a′-tetrahydro-1′H-, 4′H-spiro [cyclopropane-1, 3'-[1, 4]oxazine [3,4-c]pyridine and [2,1-f] [1,2, 4]triazine]-7′-yl)oxy) methyl carbonate]
[1]
  inhibition of transport activity of OATP1B1: nor do they inhibit the transport activity
[2]
  conversion of prodrug to active form: converted to an active form GP1707D07 by carboxylesterase CES2
[3]
  inhibition or induction of liver enzymes: do not significantly inhibit or induce liver enzymes
[4]
  detection of prodrug in plasma following oral administration: scarcely detected in plasma
  route of excretion: mainly excreted in feces
[5]
  plasma concentrations of GP681 in all the rest of blood samples: below the quantification limit
[6]; [14]
  TEAE Alanine aminotransferase increased: no. of TEAEs: 1
  TEAE Alanine aminotransferase increased: no. of subjects (percent of subjects): 1 (8.3)
  TEAE Basophil count increased: no. of subjects (percent of subjects): 0
  TEAE Gamma-glutamyltransferase increased: no. of TEAEs: 1
  TEAE Gamma-glutamyltransferase increased: no. of subjects (percent of subjects): 1 (8.3)
  TEAE Hemoglobin decreased: no. of TEAEs: 1
  TEAE Hemoglobin decreased: no. of subjects (percent of subjects): 1 (8.3)
  TEAE Hepatobiliary disorders: no. of subjects (percent of subjects): 0
  TEAE Hyperbilirubinemia: no. of subjects (percent of subjects): 0
  TEAE Hypertriglyceridemia: no. of TEAEs: 1
  TEAE Hypertriglyceridemia: no. of subjects (percent of subjects): 1 (8.3)
  TEAE Hyperuricemia: no. of TEAEs: 1
  TEAE Hyperuricemia: no. of subjects (percent of subjects): 1 (8.3)
  TEAE Hypophosphatemia: no. of subjects (percent of subjects): 0
  TEAE Investigations: no. of TEAEs: 7
  TEAE Investigations: no. of subjects (percent of subjects): 4 (33.3)
  TEAE Lymphocyte count decreased: no. of TEAEs: 1
  TEAE Lymphocyte count decreased: no. of subjects (percent of subjects): 1 (8.3)
  TEAE Metabolism and nutrition disorders: no. of TEAEs: 2
  TEAE Metabolism and nutrition disorders: no. of subjects (percent of subjects): 2 (16.7)
  TEAE Occult blood in urine: no. of TEAEs: 1
  TEAE Occult blood in urine: no. of subjects (percent of subjects): 1 (8.3)
  TEAE Overall total: no. of TEAEs: 9
  TEAE Overall total: no. of subjects (percent of subjects): 5 (41.7)
  TEAE Red blood cell increased: no. of TEAEs: 1
  TEAE Red blood cell increased: no. of subjects (percent of subjects): 1 (8.3)
  TEAE Total bile acid increased: no. of TEAEs: 1
  TEAE Total bile acid increased: no. of subjects (percent of subjects): 1 (8.3)
  TEAE White blood cell increased: no. of subjects (percent of subjects): 0
  TEAE related to GP681, Alanine aminotransferase increased: no. of TEAEs: 1[1]
  TEAE related to GP681, Alanine aminotransferase increased: no. of subjects: 1[1]
  TEAE related to GP681, Gamma-glutamyltransferase increased: no. of TEAEs: 1[1]
  TEAE related to GP681, Gamma-glutamyltransferase increased: no. of subjects: 1[1]
  TEAE related to GP681, Hemoglobin decreased: no. of TEAEs: 1[1]
  TEAE related to GP681, Hemoglobin decreased: no. of subjects: 1[1]
  TEAE related to GP681, Hypertriglyceridemia: no. of TEAEs: 1[1]
  TEAE related to GP681, Hypertriglyceridemia: no. of subjects: 1[1]
  TEAE related to GP681, Hypophosphatemia: no. of TEAEs: 1[1]
  TEAE related to GP681, Hypophosphatemia: no. of subjects: 1[1]
  TEAE related to GP681, Investigations: no. of TEAEs: 7
  TEAE related to GP681, Investigations: no. of subjects: 3
  TEAE related to GP681, Lymphocyte count decreased: no. of TEAEs: 1[1]
  TEAE related to GP681, Lymphocyte count decreased: no. of subjects: 1[1]
  TEAE related to GP681, Metabolism and nutrition disorders: no. of TEAEs: 2[2]
  TEAE related to GP681, Metabolism and nutrition disorders: no. of subjects: 2[2]
  TEAE related to GP681, Occult blood in urine: no. of TEAEs: 1[1]
  TEAE related to GP681, Occult blood in urine: no. of subjects: 1[1]
  TEAE related to GP681, Overall total: no. of TEAEs: 9
  TEAE related to GP681, Overall total: no. of subjects: 4
  TEAE related to GP681, Red blood cell increased: no. of TEAEs: 1[1]
  TEAE related to GP681, Red blood cell increased: no. of subjects: 1[1]
  TEAE related to GP681, Total bile acid increased: no. of TEAEs: 1[1]
  TEAE related to GP681, Total bile acid increased: no. of subjects: 1[1]
[6]; N = 12, treatment stage given by label, listed as Suraxavir Marboxil (GP681)
  TEAE Overall total: no. of subjects (percent of subjects): 5
[6]; Total over the study, N = 12
  TEAE related to GP681, Overall total: no. of TEAEs: 11
  TEAE related to GP681, Overall total: no. of subjects: 5
[6]; whole study, 12 subjects
  serious adverse events: No serious adverse events
[7]
  inhibition of transport activity of MDR1: nor do they inhibit the transport activity
[8]
  radioactivity recovery in feces: 84.1%
  radioactivity recovery in urine: 6.0%
  total radioactivity recovery rate: 90.1%
[9]
  inhibition of transport activity of OAT3: nor do they inhibit the transport activity
[10]
  substrate for the MDR1 transporter: Neither Suraxavir Marboxil (GP681) nor its metabolite, GP1707D07, serves as substrates
[11]
  inhibition of transport activity of OAT1: nor do they inhibit the transport activity
[12]
  inhibition of transport activity of OATP1B3: nor do they inhibit the transport activity
[13]
  substrate for the BCRP transporter: Neither Suraxavir Marboxil (GP681) nor its metabolite, GP1707D07, serves as substrates

## CCC(C)n1ncn(-c2ccc(N3CCN(c4ccc(OCC5COC(Cn6cncn6)(c6ccc(Cl)cc6Cl)O5)cc4)CC3)cc2)c1=O (stereo not shown) [Itraconazole]
[6]; [14]
  TEAE Alanine aminotransferase increased: no. of TEAEs: 1
  TEAE Alanine aminotransferase increased: no. of subjects (percent of subjects): 1 (8.3)
  TEAE Basophil count increased: no. of subjects (percent of subjects): 0
  TEAE Gamma-glutamyltransferase increased: no. of subjects (percent of subjects): 0
  TEAE Hemoglobin decreased: no. of subjects (percent of subjects): 0
  TEAE Hepatobiliary disorders: no. of subjects (percent of subjects): 1 (8.3)
  TEAE Hyperbilirubinemia: no. of subjects (percent of subjects): 1 (8.3)
  TEAE Hypertriglyceridemia: no. of subjects (percent of subjects): 1 (8.3)
  TEAE Hyperuricemia: no. of subjects (percent of subjects): 0
  TEAE Hypophosphatemia: no. of subjects (percent of subjects): 0
  TEAE Investigations: no. of TEAEs: 2
  TEAE Investigations: no. of subjects (percent of subjects): 2 (16.7)
  TEAE Lymphocyte count decreased: no. of subjects (percent of subjects): 0
  TEAE Metabolism and nutrition disorders: no. of subjects (percent of subjects): 1 (8.3)
  TEAE Occult blood in urine: no. of TEAEs: 1
  TEAE Occult blood in urine: no. of subjects (percent of subjects): 1 (8.3)
  TEAE Overall total: no. of TEAEs: 4
  TEAE Overall total: no. of subjects (percent of subjects): 4 (33.3)
  TEAE Red blood cell increased: no. of subjects (percent of subjects): 0
  TEAE Total bile acid increased: no. of subjects (percent of subjects): 0
  TEAE White blood cell increased: no. of subjects (percent of subjects): 0
[6]; N = 12, treatment stage given by label, listed as itraconazole
  TEAE Overall total: no. of subjects (percent of subjects): 4
